Test results from patent US10633389B2, “CARM1 inhibitors and uses thereof” (Epizyme, Inc., priority 2013, dated 2020).

Assays:
[1] = test system: asymmetric di-methyl PABP1 in RKO cells; test: RKO methylation assay, In Cell Western (ICW) for asymmetric di-methyl PABP1; type: cell-based; settings: Cellular potencies, ICW PABP1me2a
Summary of the method: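 RKO cells treated with compound for 48 h at 37 °C, then fixed, permeabilized and immunostained for asymmetric di-methyl PABP1, with DRAQ5 as DNA stain. Infrared 700/800 nm signal ratio normalized to DMSO and 20 μM reference-compound controls; IC50 from triplicate wells.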

human CARM1 (PRMT4) = human CARM1 (PRMT4) (Homo sapiens (Human), UniProt Q86X55); test: CARM1 enzyme assay on peptide substrate (3H-SAM Flashplate); settings: Biochemical potencies, read-out: Biochem IC50
Text: S-adenosylmethionine (SAM), S-adenosylhomocysteine (SAH), bicine, Tween20, dimethylsulfoxide (DMSO), bovine skin gelatin (BSG), sodium butyrate and Tris(2-carboxyethyl)phosphine hydrochloride solution (TCEP) were purchased from Sigma-Aldrich at the highest level of purity possible. ^3H-SAM was purchase from American Radiolabeled Chemicals with a specific activity of 80 Ci/mmol. 384-well streptavidin Flashplates were purchased from PerkinElmer.
Peptide representative of human histone H3 residues 16-30 was synthesized with an N-terminal linker-affinity tag motif and a C-terminal amide cap by 21st Century Biochemicals. […] The sequence was Biot-Ahx-[…]-amide and contained a monomethylated arginine at position 26 (SEQ ID NO.:1).
The gene sequence encoding isoform 1 containing a deletion of amino acids 539-561 was amplified subsequently and subcloned into pFastBacMam (Viva Biotech).
Recombinant baculovirus were generated according to Bac-to-Bac kit instructions (Life Technologies). Protein over-expression was accomplished by infecting exponentially growing HEK 293F cell culture at 1.3×10^6 cell/ml with virus (MOI=10) in the presence of 8 mM sodium butyrate. Infections were carried out at 37° C. for 48 hours, harvested by centrifugation, and stored at −80° C. for purification.
Expressed full-length human Flag- and His-tagged CARM1 protein was purified from cell paste by anti-flag M2 affinity chromatography with resin equilibrated with buffer containing 20 mM Tris, 150 mM NaC, 5% glycerol, pH 7.8. Column was washed with 500 mM NaCl in buffer A and Flag-CARM1-His was eluted with 200 ug/ml FLAG peptide in buffer A. Pooled fractions were dialyzed in 20 mM Tris, 150 mM NaCl, 5% glycerol and 1 mM DTT, pH 7.8.
The assays were all performed in a buffer consisting of 20 mM Bicine (pH=7.6), 1 mM TCEP, 0.005% BSG, and 0.002% Tween 20, prepared on the day of use. Compounds in 100% DMSO (1 ul) were spotted into a polypropylene 384-well V-bottom plates (Greiner) using a Platemate Plus outfitted with a 384-channel head (Thermo Scientific). DMSO (1 ul) was added to Columns 11, 12, 23, 24, rows A-H for the maximum signal control and 1 ul of SAH, a known product and inhibitor of CARM1, was added to columns 11, 12, 23, 24, rows I-P for the minimum signal control. A cocktail (40 ul) containing the CARM1 enzyme was added by Multidrop Combi (Thermo-Fisher). The compounds were allowed to incubate with CARM1 for 30 min at room temperature, then a cocktail (10 ul) containing ^3H-SAM and peptide was added to initiate the reaction (final volume=51 ul). The final concentrations of the components were as follows: CARM1 was 0.25 nM, ^3H-SAM was 30 nM, peptide was 250 nM, SAH in the minimum signal control wells was 1 mM, and the DMSO concentration was 2%. The assays were stopped by the addition of non-radiolabeled SAM (10 ul) to a final concentration of 300 uM, which dilutes the ^3H-SAM to a level where its incorporation into the peptide substrate is no longer detectable. 50 ul of the reaction in the 384-well polypropylene plate was then transferred to a 384-well Flashplate and the biotinylated peptides were allowed to bind to the streptavidin surface for at least 1 hour before being washed once with 0.1% Tween20 in a Biotek ELx405 plate washer. The plates were then read in a PerkinElmer TopCount plate reader to measure the quantity of ^3H-labeled peptide bound to the Flashplate surface, measured as disintegrations per minute (dpm) or alternatively, referred to as counts per minute (cpm).
The Hill Coefficient normally allowed to float but may also be fixed at 1 in a 3-parameter fit.

Sequence of human CARM1 (PRMT4) (Q86X55 other isoform, or with tags, fused parts or gaps isoform Q86X55-1): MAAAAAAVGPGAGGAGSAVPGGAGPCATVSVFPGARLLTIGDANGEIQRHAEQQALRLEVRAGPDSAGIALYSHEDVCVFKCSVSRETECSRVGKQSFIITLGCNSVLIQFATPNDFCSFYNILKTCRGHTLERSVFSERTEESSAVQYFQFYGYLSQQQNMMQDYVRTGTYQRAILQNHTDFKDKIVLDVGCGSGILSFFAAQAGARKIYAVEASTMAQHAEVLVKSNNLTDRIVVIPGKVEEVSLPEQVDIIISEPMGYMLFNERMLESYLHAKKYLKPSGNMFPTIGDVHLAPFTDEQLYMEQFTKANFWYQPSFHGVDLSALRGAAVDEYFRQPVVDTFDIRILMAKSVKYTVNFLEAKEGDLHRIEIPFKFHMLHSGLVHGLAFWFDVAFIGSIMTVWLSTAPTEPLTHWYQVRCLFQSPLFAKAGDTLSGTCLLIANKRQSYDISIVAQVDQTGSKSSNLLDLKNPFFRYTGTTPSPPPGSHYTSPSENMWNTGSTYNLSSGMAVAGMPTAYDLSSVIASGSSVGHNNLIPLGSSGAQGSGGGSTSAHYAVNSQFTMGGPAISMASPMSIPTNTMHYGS

| Compound | IC50 ([1]; Homo sapiens, RKO) [nM] | IC50 (human CARM1 (PRMT4)) [nM] | IC50 [1] [nM] |
| --- | --- | --- | --- |
| CNCC(O)COc1cccc(-c2nc(-c3nc[nH]c3C)cc(N(C)C3CCOCC3)n2)c1 (stereo not shown) [Example 603-1a] | 10000 to 20000 | 1000 to 3000 |  |
| CNCC(O)COc1cccc(-c2nc(N3CCN(CC(F)(F)F)CC3)cc(N(C)C3CCOCC3)n2)c1 (stereo not shown) [Example 586-1a] | 10000 to 20000 | 100 to 1000 |  |
| CNCC(O)COc1cccc(-c2nc(-c3c(C)noc3C)c(C)c(N3CCC[C@@H](N(C)C(=O)OC)C3)n2)c1 (stereo partly shown) [Example 180-1a] | 10000 to 20000 | 100 to 1000 |  |
| CNCC(O)COc1cccc(-c2nc(N[C@H]3CO[C@H]4OCC[C@H]43)cc(N3CCOCC3)n2)c1 (stereo partly shown) [Example 373-1a] | 10000 to 20000 | 100 to 1000 |  |
| CNCC(O)COc1cccc(-c2nc(NC3CCOCC3)cc(-c3ccc(S(C)(=O)=O)cc3)n2)c1 (stereo not shown) [Example 656-1a] | ≥ 20000 | 100 to 1000 |  |
| CNCC(O)COc1cccc(-c2nc(N3CC[C@H](N(C)C(C)=O)C3)cc(N(C)C3CCOCC3)n2)c1 (stereo partly shown) [Example 547-1a] | 10000 to 20000 | 100 to 1000 |  |
| CNCC(O)COc1cccc(-c2nc(C3CCN(C(=O)OC)CC3)cc(N(C)C3CCOCC3)n2)c1 (stereo not shown) [Example 533-1a] | 5000 to 10000 | 100 to 1000 |  |
| CNCC(O)COc1cccc(-c2nc(N[C@@H]3CCOC3)c(C)c(-c3c(C)nn(C)c3C)n2)c1 (stereo partly shown) [Example 354-1a] | 10000 to 20000 | 100 to 1000 |  |
| CNCC(O)COc1cccc(-c2nc(C(=O)N(C)C3CCOCC3)cc(N(C)C3CCOCC3)n2)c1 (stereo not shown) [Example 602-1a] | 10000 to 20000 | 100 to 1000 |  |
| CNCC(O)COc1cccc(-c2nc(N(C)C3CCOCC3)cc(N3CCN(C(C)=O)CC34CC4)n2)c1 (stereo not shown) [Example 552-1a] | 10000 to 20000 | 100 to 1000 |  |
| CNCC(O)COc1cccc(-c2nc(-c3cnn(CC(C)C)c3)cc(N(CCOC)CCOC)n2)c1 (stereo not shown) [Example 631-1a] | ≥ 20000 | 1000 to 3000 |  |
| CNCC(O)COc1cc(-c2nc(NC3CCOCC3)c(C)c(-c3c(C)noc3C)n2)ccc1F (stereo not shown) [Example 52-3] | ≥ 20000 | 100 to 1000 |  |
| CNCC(O)COc1cccc(-c2nc(-c3c(C)noc3C)c(C)c(-c3nc(C)cn3C)n2)c1 (stereo not shown) [Example 130-1a] | 10000 to 20000 | 100 to 1000 |  |
| CNCC(O)COc1cccc(-c2nc(NC3CCOC(C)C3)c(C)c(-c3c(C)noc3C)n2)c1Cl (stereo not shown) [Example 80-3] | ≥ 20000 | 100 to 1000 |  |
| CNCC(O)COc1cccc(-c2nc(-c3nccn3C)cc(N(C)C3CCOCC3)n2)c1 (stereo not shown) [Example 583-1a] | 10000 to 20000 | 100 to 1000 |  |
| CNCC(O)COc1cccc(-c2nc(NC3CCOC3)c(C)c(N3CCCC4(CCOCC4)C3)n2)c1 (stereo not shown) [Example 401-1a] | 10000 to 20000 | 100 to 1000 |  |
| CNCC(O)COc1cccc(-c2nc(NC3CCOCC3)cc(-c3c(C)n[nH]c3C)n2)c1 (stereo not shown) [Example 670-1a] | ≥ 20000 | 100 to 1000 |  |
| CNCC(O)COc1cccc(-c2nc(-c3c[nH]cn3)cc(N(C)C3CCOCC3)n2)c1 (stereo not shown) [Example 589-1a] | 10000 to 20000 | 100 to 1000 |  |
| CNCC(O)COc1cccc(-c2nc(NC3CCOCC3)c(C)c(N3CCNC(C)(C)C3)n2)c1 (stereo not shown) [Example 664-1a] | ≥ 20000 | 100 to 1000 |  |
| CNCC(O)COc1cccc(-c2nc(NCCOC)cc(-c3ccc(S(C)(=O)=O)cc3)n2)c1 (stereo not shown) [Example 637-1a] | ≥ 20000 | 100 to 1000 |  |
| CNCC(O)COc1cccc(-c2nc(-c3ccncc3)cc(N(C)C3CCN(C)CC3)n2)c1 (stereo not shown) [Example 674-1a] | ≥ 20000 | 100 to 1000 |  |
| CNCC(O)COc1cccc(-c2nc(NC3CCOCC3)c(C)c(N3CCN(S(C)(=O)=O)CC3)n2)c1 (stereo not shown) [Example 660-1a] | ≥ 20000 | 1000 to 3000 |  |

| Compound | IC50 ([1]; Homo sapiens, RKO) [nM] | IC50 (human CARM1 (PRMT4)) [nM] | IC50 [1] [nM] |
| --- | --- | --- | --- |
| CNCC(O)COc1cccc(-c2nc(N[C@@H]3CCOC3)c(C)c(-c3ccnnc3)n2)c1 (stereo partly shown) [Example 459-1a] | 10000 to 20000 | 100 to 1000 |  |
| CNCC(O)COc1cccc(-c2nc(Nc3c(C)noc3C)cc(-c3c(C)noc3C)n2)c1 (stereo not shown) [Example 48-1a] | 10000 to 20000 | 1000 to 3000 |  |
| CNCC(O)COc1cccc(-c2nc(-c3cccc4ncccc34)cc(N(CCOC)CCOC)n2)c1 (stereo not shown) [Example 639-1a] | ≥ 20000 | 100 to 1000 |  |
| CNCC(O)COc1cccc(-c2nc(N3CCN(S(C)(=O)=O)[C@@H](C)C3)cc(N(C)C3CCOCC3)n2)c1 (stereo partly shown) [Example 520-1a] | 5000 to 10000 | 100 to 1000 |  |
| CNCC(O)COc1cc(Cl)cc(-c2nc(-c3c[nH]c4ccccc34)c(C)c(N(C)C3CCOCC3)n2)c1 (stereo not shown) [Example 625-1a] | 10000 to 20000 | 100 to 1000 |  |
| CNCC(O)COc1cccc(-c2nc(N[C@@H]3CCOC3)c(C)c(C(=O)N3CCOCC3)n2)c1 (stereo partly shown) [Example 403-1a] | 10000 to 20000 | 3000 to 10000 |  |
| CNCC(O)COc1cccc(-c2nc(-c3c(C)n[nH]c3C)c(C)c(-c3c(C)noc3C)n2)c1 (stereo not shown) [Example 26-1a] | 10000 to 20000 | 1000 to 3000 |  |
| CNCC(O)COc1cccc(-c2nc(NC3CCOCC3)c(C)c(-c3c(C)n[nH]c3C)n2)c1 (stereo not shown) [Example 661-1a] | ≥ 20000 | 100 to 1000 |  |
| CNC[C@@H](O)COc1cccc(-c2nc(NCC3CCOCC3)cc(-c3cn(S(C)(=O)=O)c4ncncc34)n2)c1 [Example 686-1a] | ≥ 20000 | 100 to 1000 |  |
| CNCC(O)COc1cc(Cl)cc(-c2nc(C(=O)N(C)C)cc(N(C)C3CCOCC3)n2)c1 (stereo not shown) [Example 557-1a] | 10000 to 20000 | 100 to 1000 |  |
| CNCC(O)COc1cccc(-c2nc(N[C@H]3CO[C@H]4OCC[C@H]43)cc(N3CCOCC3)n2)c1 (stereo partly shown) [Example 672-1a] |  | 100 to 1000 | 10000 to 20000 |
| CNC[C@H](O)COc1ccc(F)c(-c2nc(-c3c(C)noc3C)c(C)c(-c3c(C)noc3C)n2)c1 [Example 81-3] | ≥ 20000 | 1000 to 3000 |  |
| CCNc1nc(-c2cccc(OCC(O)CNC)c2)nc(NC2CCOCC2)c1C (stereo not shown) [Example 676-1a] | ≥ 20000 | 1000 to 3000 |  |
| CNCC(O)COc1cccc(-c2nc(N[C@@H]3CCOC3)c(C)c(C(=O)N(C)CC3CCOCC3)n2)c1 (stereo partly shown) [Example 364-1a] | 10000 to 20000 | 100 to 1000 |  |
| CNCC(O)COc1cc(-c2nc(NC3CCOC(C)C3)c(C)c(-c3c(C)noc3C)n2)ccc1F (stereo not shown) [Example 51-3] | ≥ 20000 | 100 to 1000 |  |
| CNCC(O)COc1cccc(-c2nc(Nc3c(C)noc3C)cc(N(C)C3CCOCC3)n2)c1 (stereo not shown) [Example 597-1a] | 10000 to 20000 | 100 to 1000 |  |
| CNCC(O)COc1cccc(-c2nc(NCCOC)cc(-c3ccc(OC)c(OC)c3)n2)c1 (stereo not shown) [Example 630-1a] | ≥ 20000 | 100 to 1000 |  |
| CNCC(O)COc1cccc(-c2nc(-c3cc4ccccc4o3)cc(N(CCOC)CCOC)n2)c1 (stereo not shown) [Example 640-1a] | ≥ 20000 | 100 to 1000 |  |
| CNCC(O)COc1cccc(-c2nc(N[C@@H]3CCOC3)c(C)c(C(=O)NCC3CCOCC3)n2)c1 (stereo partly shown) [Example 346-1a] | 10000 to 20000 | 100 to 1000 |  |
| CNCC(O)COc1cccc(-c2nc(N[C@@H]3CCOC3)c(C)c(N(C)Cc3ccccn3)n2)c1 (stereo partly shown) [Example 393-1a] | 10000 to 20000 | 100 to 1000 |  |
| CCS(=O)(=O)N1CCN(c2cc(N(C)C3CCOCC3)nc(-c3cccc(OCC(O)CNC)c3)n2)C[C@@H]1C (stereo partly shown) [Example 497-1a] | < 5000 | 100 to 1000 |  |
| CNCC(O)COc1cccc(-c2nc(-c3c(C)ncnc3C)cc(N(C)C3CCOCC3)n2)c1 (stereo not shown) [Example 556-1a] | 10000 to 20000 | 100 to 1000 |  |
